Measured values: patent US20220235011A1, “PHTHALAZINONE COMPOUNDS AND USE THEREOF” (ST PHARM CO., LTD., priority 2019, published 2022)
Counter-ions that a name gives are not always drawn.

Target: T1, Sirt6 (Homo sapiens, UniProt Q8N6T7)
T1 construct: purchased CycLex CY-1156V2
Test: Measurement of Sirt6 Activity (CycLex Sirt6 Deacetylase Fluorometric Assay Kit)
Type: biochemical
Details: compound at 10 μM; fluorescence relative to the group without compound treatment (positive control group)
How it was run: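 Recombinant Sirt6 with fluoro-labelled acetyl-lysine peptide, NAD and lysylendopeptidase developer, compound added from 10× stock in PBS; 1 h at room temperature. Fluorescence read at ex 490/em 530 nm; activation expressed as fluorescence ratio relative to enzyme without compound.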

T1 sequence (Q8N6T7 whole entry): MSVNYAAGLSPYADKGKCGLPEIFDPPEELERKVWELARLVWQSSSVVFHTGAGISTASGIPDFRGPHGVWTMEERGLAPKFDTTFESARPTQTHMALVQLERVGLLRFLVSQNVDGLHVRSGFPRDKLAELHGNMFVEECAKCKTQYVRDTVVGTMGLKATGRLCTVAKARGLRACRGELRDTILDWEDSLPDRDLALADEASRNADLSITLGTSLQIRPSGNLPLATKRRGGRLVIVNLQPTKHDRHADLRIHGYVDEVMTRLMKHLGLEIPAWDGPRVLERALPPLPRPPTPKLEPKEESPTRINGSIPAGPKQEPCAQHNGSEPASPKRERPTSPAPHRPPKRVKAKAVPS

CC(C)(C(=O)O)c1cccc(-c2nn(-c3ccccc3F)c(=O)c3ccccc23)c1 [Example 171, 2-(3-(3-(2-Fluorophenyl)-4-oxo-3,4-dihydrophthalazin-1-yl)phenyl)-2-methylpropanoic Acid]
Sirt6 Activity (% activity, 10 μM): 134.7 % activity

Cl.NC1CCCCN(c2nn(C3CCC3)c(=O)c3ccccc23)C1 (stereo not shown) [Example 172, 4-(3-Aminoazepan-1-yl)-2-cyclobutyl phthalazin-1(2H)-one-hydrochloride]
Sirt6 Activity (% activity, 10 μM): 99.5 % activity

Cl.NC1CCCCN(c2nn(C3CCCC3)c(=O)c3ccccc23)C1 (stereo not shown) [Example 173, 4-(3-Aminoazepan-1-yl)-2-cyclopentyl phthalazin-1(2H)-one-hydrochloride]
Sirt6 Activity (% activity, 10 μM): 112.2 % activity

Cc1nc(C(C)(C)c2cccc(-c3nn(-c4ccc(F)cc4F)c(=O)c4ccccc34)c2)no1 [Example 174, 2-(2,4-Difluorophenyl)-4-(3-(2-(5-methyl-1,2,4-oxadiazol-3-yl)propan-2-yl)phenyl)phthalazin-1(2H)-one]
Sirt6 Activity (% activity, 10 μM): 114.2 % activity

Cl.N[C@@H]1CCCCN(c2nn(-c3ccccc3F)c(=O)c3ccccc23)C1 [Example 175, (R)-4-(3-Aminoazepan-1-yl)-2-(2-fluorophenyl)phthalazin-1(2H)-one-hydrochloride]
Sirt6 Activity (% activity, 10 μM): 155.3 % activity

CC(C)NC(=O)C(C)(C)c1cccc(-c2nn(-c3ccc(F)cc3F)c(=O)c3ccccc23)c1 [Example 176, 2-(3-(3-(2,4-Difluorophenyl)-4-oxo-3,4-dihydrophthalazin-1-yl)phenyl)-N-isopropyl-2-methylpropanamide]
Sirt6 Activity (% activity, 10 μM): 244.30 % activity

CC(C)(C(=O)N1CCCC1)c1cccc(-c2nn(-c3ccc(F)cc3F)c(=O)c3ccccc23)c1 [Example 177, 2-(2,4-Difluorophenyl)-4-(3-(2-methyl-1-oxo-1-(pyrrolidin-1-yl)propan-2-yl)phenyl)phthalazin-1(2H)-one]
Sirt6 Activity (% activity, 10 μM): 241.6 % activity

CC(C)(C(=O)NC1CC1)c1cccc(-c2nn(-c3ccc(F)cc3F)c(=O)c3ccccc23)c1 [Example 178, N-Cyclopropyl-2-(3-(3-(2,4-difluorophenyl)-4-oxo-3,4-dihydrophthalazin-1-yl)phenyl)-2-methyl Propanamide]
Sirt6 Activity (% activity, 10 μM): 331.00 % activity

CC(C)(C(=O)N1CCOCC1)c1cccc(-c2nn(-c3ccc(F)cc3F)c(=O)c3ccccc23)c1 [Example 179, 2-(2,4-Difluorophenyl)-4-(3-(2-methyl-1-morpholino-1-oxopropan-2-yl)phenyl)phthalazin-1(2H)-one]
Sirt6 Activity (% activity, 10 μM): 221.60 % activity

CC(C)(C(=O)NC1CCCCC1)c1cccc(-c2nn(-c3ccc(F)cc3F)c(=O)c3ccccc23)c1 [Example 180, N-Cyclohexyl-2-(3-(3-(2,4-difluorophenyl)-4-oxo-3,4-dihydrophthalazin-1-yl)phenyl)-2-methylpropanamide]
Sirt6 Activity (% activity, 10 μM): 133.30 % activity

CC(C)(C(=O)Nc1ccccc1)c1cccc(-c2nn(-c3ccc(F)cc3F)c(=O)c3ccccc23)c1 [Example 181, 2-(3-(3-(2,4-difluorophenyl)-4-oxo-3,4-dihydrophthalazin-1-yl)phenyl)-2-methyl-N-phenylpropanamide]
Sirt6 Activity (% activity, 10 μM): 122.10 % activity

Cn1cc(NC(=O)C(C)(C)c2cccc(-c3nn(-c4ccc(F)cc4F)c(=O)c4ccccc34)c2)cn1 [Example 182, 2-(3-(3-(2,4-Difluorophenyl)-4-oxo-3,4-dihydrophthalazin-1-yl)phenyl)-2-methyl-N-(1-methyl-1H-pyrazol-4-yl)propanamide]
Sirt6 Activity (% activity, 10 μM): 219.60 % activity

O=C(O)C1(c2cccc(-c3nn(-c4ccc(F)cc4F)c(=O)c4ccccc34)c2)CC1 [Example 183, 1-(3-(3-(2,4-Difluorophenyl)-4-oxo-3,4-dihydrophthalazin-1-yl)phenyl)cyclopropan-1-carboxylic Acid]
Sirt6 Activity (% activity, 10 μM): 194.70 % activity

O=c1c2ccccc2c(N2CCCNCC2)nn1-c1ccc(F)cc1F [Example 184, 4-(1,4-Diazepan-1-yl)-2-(2,4-difluorophenyl)phthalazin-1(2H)-one-hydrochloride]
Sirt6 Activity (% activity, 10 μM): 176.80 % activity

Cl.N[C@@H]1CCCCN(c2nn(-c3ccc(Cl)cc3)c(=O)c3ccccc23)C1 [Example 185, (R)-4-(3-Aminoazepan-1-yl)-2-(4-chlorophenyl)phthalazin-1(2H)-one-hydrochloride]
Sirt6 Activity (% activity, 10 μM): 273.80 % activity

CC(C)(C(=O)NCCO)c1cccc(-c2nn(-c3ccc(F)cc3F)c(=O)c3ccccc23)c1 [Example 186, 2-(3-(3-(2,4-Difluorophenyl)-4-oxo-3,4-dihydrophthalazin-1-yl)phenyl)-N-(2-hydroxyethyl)-2-methyl Propanamide]
Sirt6 Activity (% activity, 10 μM): 305.80 % activity

CCS(=O)(=O)N[C@@H]1CCCCN(c2nn(-c3ccc(F)cc3F)c(=O)c3ccccc23)C1 [Example 187, (R)—N-(1-(3-(2,4-Difluorophenyl)-4-oxo-3,4-dihydrophthalazin-1-yl)azepan-3-yl)ethanesulfonamide]
Sirt6 Activity (% activity, 10 μM): 303.80 % activity

CC(C)(C(N)=O)c1cccc(-c2nn(-c3ccc(F)cc3F)c(=O)c3ccccc23)c1 [Example 188, 2-(3-(3-(2,4-Difluorophenyl)-4-oxo-3,4-dihydrophthalazin-1-yl)phenyl)-2-methylpropanamide]
Sirt6 Activity (% activity, 10 μM): 358.40 % activity

CN[C@@H]1CCCCN(c2nn(-c3ccc(F)cc3F)c(=O)c3ccccc23)C1 [Example 189, (R)-2-(2,4-Difluorophenyl)-4-(3-(methylamino)azepan-1-yl)phthalazin-1(2H)-one-hydrochloride]
Sirt6 Activity (% activity, 10 μM): 273.70 % activity

O=c1c2ccccc2c(N2CCCCC(O)C2)nn1-c1ccc(F)cc1F (stereo not shown) [Example 190, 2-(2,4-Difluorophenyl)-4-(3-hydroxyazepan-1-yl)phthalazin-1(2H)-one]
Sirt6 Activity (% activity, 10 μM): 332.60 % activity

Cl.O=c1c2ccccc2c(N2CCCC[C@@H](NCCO)C2)nn1-c1ccc(F)cc1F [Example 191, (R)-2-(2,4-Difluorophenyl)-4-(3-((2-hydroxyethyl)amino)azepan-1-yl)phthalazin-1(2H)-one-hydro Chloride]
Sirt6 Activity (% activity, 10 μM): 312.70 % activity

CC(=O)N[C@@H]1CCCCN(c2nn(-c3ccc(F)cc3F)c(=O)c3ccccc23)C1 [Example 192, (R)—N-(1-(3-(2,4-Difluorophenyl)-4-oxo-3,4-dihydrophthalazin-1-yl)azepan-3-yl)acetamide]
Sirt6 Activity (% activity, 10 μM): 286.60 % activity

O=C1CCCCN(c2nn(-c3ccc(F)cc3F)c(=O)c3ccccc23)C1 [Example 193, 2-(2,4-Difluorophenyl)-4-(3-oxoazepan-1-yl)phthalazin-1 (2H)-one]
Sirt6 Activity (% activity, 10 μM): 206.10 % activity

CC(C)(C(=O)O)c1cccc(-c2nn(-c3ccc(Cl)cc3)c(=O)c3ccccc23)c1 [Example 194, 2-(3-(3-(4-Chlorophenyl)-4-oxo-3,4-dihydrophthalazin-1-yl)phenyl)-2-methylpropanoic Acid]
Sirt6 Activity (% activity, 10 μM): 350.20 % activity

O=C(O)C1(c2cccc(-c3nn(-c4ccc(Cl)cc4)c(=O)c4ccccc34)c2)CC1 [Example 195, 1-(3-(3-(4-Chlorophenyl)-4-oxo-3,4-dihydrophthalazin-1-yl)phenyl)cyclopropan-1-carboxylic Acid]
Sirt6 Activity (% activity, 10 μM): 287.30 % activity

O=c1c2ccccc2c(N2CCCCC(O)C2)nn1-c1ccc(Cl)cc1 (stereo not shown) [Example 196, 2-(4-Chlorophenyl)-4-(3-hydroxyazepan-1-yl)phthalazin-1(2H)-one]
Sirt6 Activity (% activity, 10 μM): 135.10 % activity

CC(C)(C(N)=O)c1cccc(-c2nn(-c3ccc(Cl)cc3)c(=O)c3ccccc23)c1 [Example 197, 2-(3-(3-(4-Chlorophenyl)-4-oxo-3,4-dihydrophthalazin-1-yl)phenyl)-2-methylpropanamide]
Sirt6 Activity (% activity, 10 μM): 153.60 % activity

NC(=O)C1(c2cccc(-c3nn(-c4ccc(Cl)cc4)c(=O)c4ccccc34)c2)CC1 [Example 198, 1-(3-(3-(4-Chlorophenyl)-4-oxo-3,4-dihydrophthalazin-1-yl)phenyl)cyclopropan-1-carboxyamide]
Sirt6 Activity (% activity, 10 μM): 225.40 % activity

O=C(O)Cc1cccc(-c2nn(-c3ccc(F)cc3F)c(=O)c3ccccc23)c1 [Example 199, 2-(3-(3-(2,4-Difluorophenyl)-4-oxo-3,4-dihydrophthalazin-1-yl)phenyl)acetic Acid]
Sirt6 Activity (% activity, 10 μM): 149.41 % activity

CC(C)(N)c1cccc(-c2nn(-c3ccc(F)cc3F)c(=O)c3ccccc23)c1.Cl [Example 200, 4-(3-(2-Aminopropan-2-yl)phenyl)-2-(2,4-difluorophenyl)phthalazin-1(2H)-one-hydrochloride]
Sirt6 Activity (% activity, 10 μM): 255.33 % activity

CC(C)(C(=O)O)c1cccc(-c2nn(-c3ccc(Cl)cc3F)c(=O)c3ccccc23)c1 [Example 201, 2-(3-(3-(4-Chloro-2-fluorophenyl)-4-oxo-3,4-dihydrophthalazin-1-yl)phenyl)-2-methylpropanoic Acid]
Sirt6 Activity (% activity, 10 μM): 204.58 % activity

Cl.N[C@@H]1CCCCN(c2nn(-c3ccc(Cl)cc3F)c(=O)c3ccccc23)C1 [Example 202, (R)-4-(3-Aminoazepan-1-yl)-2-(4-chloro-2-fluorophenyl)phthalazin-1-(2H)-one-hydrochloride]
Sirt6 Activity (% activity, 10 μM): 261.73 % activity

N#CC1CCCCN(c2nn(-c3ccc(Cl)cc3F)c(=O)c3ccccc23)C1 (stereo not shown) [Example 203, 1-(3-(4-Chloro-2-fluorophenyl)-4-oxo-3,4-dihydrophthalazin-1-yl)azepane-3-carbonitrile]
Sirt6 Activity (% activity, 10 μM): 109.84 % activity

CC(C)(CN)c1cccc(-c2nn(-c3ccc(F)cc3F)c(=O)c3ccccc23)c1.Cl [Example 204, 4-(3-(1-Amino-2-methylpropan-2-yl)phenyl)-2-(2,4-difluorophenyl)phthalazin-1(2H)-one-hydro Chloride]
Sirt6 Activity (% activity, 10 μM): 161.50 % activity
